US20170119020A1, “METHOD OF FEEDING AN ANIMAL” (CARGILL, INCORPORATED, priority 2014, published 2017)
Marks after values point to notes of the source that are not given here.

Tests used:
[1] = test system: Cobb 500FF breeder chickens; assay: Broiler breeder performance, partial replacement of vitamin E by PROVIOX 50 (Example 1); format: in vivo, chicken
Method: Two different breeder diets (Table 1) were tested in a randomized block design. Breeders received a standard control diet or a diet where 50% of the vitamin E was replaced by PROVIOX 50. The two diets were randomly distributed into six cages, resulting in three replicates per treatment with 28, 29, or 30 females and […] per replicate.
The experimental period lasted four weeks; the breeders received a lay start diet during the entire period according to the experimental design. Feed and water were restricted. Feed amount depended on body weight development. Water was provided for two hours a day, crops were checked regularly to ensure the correct amount of water was provided.
A total of 24 male and 173 female Cobb 500FF 20-week-breeder chickens were procured. The males and females were randomly assigned to six floor pens (four males per pen, 29 females in pens 1-3, 30 females in pen 4, and 28 females in pens 5 and 6). During the pre-trial period, all breeders received the control diet.
Throughout the trial, breeders were housed in broiler breeder floor pens ([…]) on litter (flax). Each pen was equipped with two bell drinkers adjustable in height. The feed for the females was supplied via two feeder bowls on the raised slatted floor. The feed for the males was supplied via a feeder trough on the other side of the pen.
Day length was set at 14 hours a day until peak production was reached (70%; day 15). After peak production was achieved, day length was set to 15 hours a day. Temperature and ventilation were computer controlled. The temperature was set at 20° C. for the entire experimental period.
Individual bird weights were recorded weekly from the start of the experiment. Feed amount provided was recorded on a daily basis. Egg production and egg quality data were recorded on a daily basis. Laying % was calculated as number of eggs produced per pen divided by the number of bird days of the experimental period. Egg mass production per pen per week was calculated as laying % (including second-class eggs) times average egg weight of the pen. Average egg weight was determined per pen once a week. Second-class eggs were divided into dirty eggs, broken eggs, shell-less eggs, double-yolk eggs, floor eggs and remaining second-class eggs. Mortality was checked every day; dead animals were not replaced during the experimental period.

sows and piglets = assay: Total antioxidant status (TAS) in serum of sows and piglets (Example 10); format: in vivo, pig; conditions: for Total antioxidant status (TAS) in serum of piglets: piglets at 21 days
Excerpt: The performance following criteria were monitored during the trial: (i) Sows response criteria (actual parity, farrowing rate, culled sows—number and reasons, wean-to-mating interval, farrowing rate in the next cycle); (ii) litter response criteria (number of piglets, total, alive, stillborn, mummies; weight of piglets and litters; survival). The following biochemical (blood) criteria were monitored during the trial for the sows (mating, farrowing and weaning), piglets 21st day: (i) glutathione peroxidase (GPx) activity; (ii) superoxide dismutase (SOD) activity; (iii) total antioxidant status (TAS); (iv) vitamin E content; (v) vitamin A content.
To determine the oxidative status, the blood samples were collected from sows and piglets into tubes with lithium anticoagulant—received whole blood for analysis. At the same time blood samples were taken for blood clot. They were centrifuged (1500 rpm, 15 Temp. 4° C.) and obtained serum was pipetted into separate tubes.
In studies of oxidative status of sows and piglets were used suitable to each of the indicators, the reagent kits from Sigma-Aldrich. Determination was made in accordance with the descriptions of the rules and procedures specified by the manufacturer.
The content of the TAS (total antioxidant status) were determined using the Antioxidant assay kit (Cat. No CS0790), the activity of SOD (superoxide dismutase) was determined using SOD determination kit 19160, the activity of GPx (glutathione Peroxide assai Cellular Activity Kit) Cat. No CGP1. The content of vitamins A and E by McMurray and Blanchflower 1979 (Journal of Chromatography 178, 525-531.). TAS
Serum samples (10 ul) in duplicate were incubated at room temperature for 5 minutes with the working solution of ABTS (2,2-azino-bis (3-ethylbenzthiazoline-6-sulfonic acid) (150 pl) and the solution with myoglobin (20 pl). Simultaneously the calibration curve was performed based on serial dilutions of Trolox equivalent in the range of 0.015 to 0.42 mM (mmol).
The formed a ferryl radical from myoglobin and hydrogen peroxide causes oxidation of ABTS and production of radical cation ABTS*. The resulting chromogen has a blue-green color. In the presence of antioxidants the radical cation is suppressed to an extent dependent on the activity of the antioxidant and the color intensity is decreased proportionally. The color was measured with a spectrophotometer at a wavelength of 405 nm.

[2] = breeders 26 through 30 weeks of age

Cc1c(C)c2c(c(C)c1O)CCC(C)(CCCC(C)CCCC(C)CCCC(C)C)O2 (racemic) [Vitamin E, DL-α-tocopherol]
Egg Mass [1, 2]: 47.1 g/hen/day | Egg Weight [1, 2]: 56.4 g | First Class Eggs [1, 2]: 77.9% | Second Choice Eggs: Broken Eggs [1, 2]: 1.6% | Second Choice Eggs: Dirty Eggs [1, 2]: 0.7% | Second Choice Eggs: Double Yolk Eggs [1, 2]: 1.3% | Second Choice Eggs: Floor Eggs [1, 2]: 1.4% | Second Choice Eggs: Remainder [1, 2]: 0.5% | Second Choice Eggs: Shell Less Eggs [1, 2]: 0.1% | Laying Percentage ([1]; breeders 26 through 30 weeks of age, half of vitamin E replaced by PROVIOX 50): 83.6% | BW 30 wk Females ([1]; in vivo): 3.68 kg | BW 30 wk Males ([1]; in vivo): 4.19 kg | BW 26 wk Females ([1]; start of experiment): 3.50 kg | BW 26 wk Males ([1]; start of experiment): 3.91 kg | Total antioxidant status (TAS) in serum of sows (sows and piglets; Breeding, Group 2: vitamin E 50/75 mg/kg diet): 1.26 mmol/L | Total antioxidant status (TAS) in serum of sows (sows and piglets; Breeding, Group 3: vitamin E 100/150 mg/kg diet): 1.29 mmol/L | Total antioxidant status (TAS) in serum of sows (sows and piglets; Farrowing, Group 2: vitamin E 50/75 mg/kg diet): 1.18^a mmol/L | Total antioxidant status (TAS) in serum of sows (sows and piglets; Farrowing, Group 3: vitamin E 100/150 mg/kg diet): 1.19^a mmol/L | Total antioxidant status (TAS) in serum of sows (sows and piglets; Weaning, Group 2: vitamin E 50/75 mg/kg diet): 1.18^B mmol/L | Total antioxidant status (TAS) in serum of sows (sows and piglets; Weaning, Group 3: vitamin E 100/150 mg/kg diet): 1.20^Ba mmol/L | Total antioxidant status (TAS) in serum of piglets (sows and piglets; Group 2: vitamin E 50/75 mg/kg sow diet): 1.16^B mmol/L | Total antioxidant status (TAS) in serum of piglets (sows and piglets; Group 3: vitamin E 100/150 mg/kg sow diet): 1.18^A mmol/L
